# From patent US5389621A, “Method of enhancing the anticoagulant effects of aspirin using salicylamide” (University of Medicine and Dentistry of New Jersey, priority 1994, dated 1995)
# “Also recorded” adds a separate entry of the source.
# Experiments:
# Format in all cases: in vivo, male Sprague-Dawley rats
# [1] = Tissue distribution of 14C radioactivity after 14C-salicylamide
# Experimental: All animals were identified by ear punching. Food and water were provided ad libitum.
# (§1) Forty-eight rats were divided into two groups.
# Each group consisted of 24 rats and was further divided into 4 subgroups, 6 rats each, according to the following scheme:
# The rats were fasted overnight. The drug(s) were prepared fresh, dissolved in 2.5 ml of deionized water and administered orally by gavage needle. The rats were allowed water ad libitum before and after the oral administration.
# The different treatments were given according to the previous scheme and each rat received an amount of radioactivity equal to […] in the case of radioactive aspirin and 10 μCu in the case of radioactive salicylamide. For the low and high dose ASA treatments 3696 and 1848 dpm ^14 C-ASA/μg total ASA were used respectively. For SAM, 24.4 and 12.2 dpm ^14 C-SAM/ng total SAM were utilized for low and high dose treatments, respectively.
# (§2) The rats were anesthetized by light diethyl ether inhalation.
# The rest of the red blood cells were washed twice by adding 2 ml of physiological saline and were resuspended after each addition. The red blood cells were centrifuged at 3000 rpm (1800×g) for 10 minutes and 300 μl were pipetted in a scintillation vial for measurement of ^14 C radioactivity.
# After collecting the blood sample, the rats were sacrificed immediately by a diethyl ether overdose. The following tissues were collected: liver, lung, kidney, heart, spleen, perinephric fat, brain, upper small intestine, stomach, pancreas, bone (femur and tibia), testis, skin and skeletal muscle. A sample of bone marrow was also collected (approximately20 mg).
# 300 mg tissue samples were placed in scintillation vials and 300 μl of 70% perchloric acid and 600 μl of 30% hydrogen peroxide were added to each vial and also to the vials containing the washed red blood cells aliquots. The vials were incubated at 75° C. for 1 hour in a shaking water bath and were tightly capped to prevent any loss of radioactivity by evaporation.
# The vials were left to cool to room temperature for 15 minutes before 10 ml Aquasol-2 scintillation fluid was added to each vial. The total radioactivity was counted in a Beckman model 7500 LS spectrophotometer.
# [2] = Plasma kinetics of total 14C after oral 14C-salicylamide alone or with aspirin
# Experimental: (§3) Male adult Sprague-Dawley rats (300-325 gm) obtained from Charles River Breeding Laboratory, N. Wilmington, Mass. were quarantined for one week. All animals were identified by ear punching. Food and water were provided ad libitum. The animals were maintained on rodent lab chow diet in a controlled environment with 50% humidity and 12 hour light/dark cycle.
# (§4) Two dose combinations were employed. The low dose was 10 and/or 3 mg/kg of ASA and/or SAM, respectively, while the high dose was double the low dose. These doses were approximately equal (w/w) to that in commercially available combinations, e.g., BC® formula, when administered to humans.
# (§5) Rats were divided into 2 groups; the first group consisted of 30 rats which were assigned to 5 subgroups, 6 rats each, according to the following treatment scheme:
# (§6) The second group consisted of 4 subgroups and were administered double the dose received by the first group (with the exception of subgroup III).
# The rats were fasted overnight (~18 hr.) before administration of the treatments and were allowed water ad libitum. The drug(s) to be given were prepared fresh in the morning of the study, dissolved in 2.5 ml of deionized water and gavaged to rats. […]
# (§7) The samples were collected by heparinized plastic syringes and transferred to polyethylene test tubes. The samples, ~300 μl each, were rapidly centrifuged at 1800×g for 15 minutes at 4° C.
# (§8) The terminal elimination rate constant (ke) was estimated by linear regression of the terminal β phase of the plasma concentration vs. time curves. The area under the curve (AUC.infin.) was calculated by using the trapezoidal method from zero to the last measured plasma concentration. The half-life of elimination (t1/2β) was obtained by the equation t1/2β =0.693/ke.
# (§9) Total body clearance (ClT) was estimated by the equation ClT =Dose/AUC assuming a complete absorption of ASA and SAM (Iwamoto et al., 1982; Iwamoto et al., 1983). The apparent volume of distribution Vd was calculated from the formula, Vd =ClT /ke.
# [3] = Tightly protein-bound 14C radioactivity after 14C-salicylamide; details: for Effect on tightly protein-bound 14C in lung: 14C-SAM with ASA
# Experimental: as §1, §2
# The plasma tightly protein-bound activity was measured by adding 100 μl of 10% trichloroacetic acid (TCA) to 100 μl of plasma in microcentrifuge tubes and vortexing the contents for 1 minute followed by centrifugation at 1800×g for 10 minutes. The supernatant was decanted and the tubes with the pellets in them were placed in scintillation vials each containing 15 ml of Aquasol-2 scintillation fluid. […] The radioactivity in the scintillation vials was counted in Beckman LS counter.
# In the case of plasma analysis, 100 μl samples were used and the remainder of the procedure was the same as described above. The pellets were not dissolved but instead directly poured in a tube containing 15 ml of the scintillation fluid and the radioactivity was measured in the Beckman LS counter.
# [4] = Plasma kinetics of total 14C after oral 14C-aspirin alone or with salicylamide; details: for AUC.infin. of 14C: mean ± SE, n=6
# Experimental: as §3, §4, §5, §6
# The rats were fasted overnight (~18 hr.) before administration of the treatments and were allowed water ad libitum. The drug(s) to be given were prepared fresh in the morning of the study, dissolved in 2.5 ml of deionized water and gavaged to rats.
# The specific activity of ASA was 739 and 369 dpm/μg for the low and high dose treatments, respectively.
# as §7, §8, §9
# [5] = ASA 20 mg/kg with 14C-SAM 6 mg/kg
# [6] = oral 14C-ASA 10 mg/kg, alone or with SAM 3 mg/kg
# [7] = oral 14C-ASA 20 mg/kg, alone or with SAM 6 mg/kg
smiles,measurement,setting,value
"CC(=O)Oc1ccccc1C(=O)O [ASA, acetylsalicylic acid]","Change of tissue 14C in RBCs, bone, fat, skin, muscle, heart and others",[1]; 14C-SAM/ASA 3/10 mg/kg vs 14C-SAM alone,enhanced the tissue concentration; also recorded: significant elevation
same,"Change of tissue 14C, high dose","[1]; 14C-SAM/ASA high dose vs 14C-SAM alone, liver, lung, RBCs, and muscle or heart",significantly augmented
same,Effect of ASA on AUC.infin. of 14C after 14C-SAM,[2]; [5],significantly increased
same,Effect of ASA on elimination half-life of 14C after 14C-SAM,[2]; [5],significantly increased
same,Effect of ASA on SAM kinetics,[2]; ASA low dose 10 mg/kg,did not significantly effect SAM kinetics
same,Effect of ASA on total body clearance of SAM,[2]; low and high dose combinations,tended to decrease
same,Effect on tightly protein-bound 14C in lung,[3]; high dose,reached a significant level
same,Effect on tightly protein-bound 14C in lung,[3]; low dose,tended to be higher
same,Effect of ASA on tightly protein-bound 14C in heart,[3]; low dose combination,significantly enhanced
CC(=O)Oc1ccccc1[14C](=O)O [^14 C-ASA],Effect on AUC.infin. of 14C,[4]; after 14C-ASA,showed a dose dependent increase
same,Effect on total body clearance (ClT) of 14C,[4]; after 14C-ASA,decreased dose-dependently
same,T1/2β of 14C,"[4]; high dose, 14C-ASA alone or with SAM",5.1 h
same,Elimination half-life of 14C,"[4]; low dose of 14C-ASA alone or in combination with SAM, from 6-24 hour plasma concentrations, 10 mg/kg",2.8 to 3.2 h
same,AUC4hr of 14C (first 4 hr),[4]; [6],99.6 ± 10.6 µg·h/mL
same,C1T total body clearance of 14C,[4]; [6],10.3 ± 1.1 mL/h
same,Cmax of 14C,[4]; [6],29900 ± 2300 ng/mL
same,T1/2abs absorption half-life of 14C,[4]; [6],9.1 ± 1.1 min
same,T1/2β elimination half-life of 14C,[4]; [6],3.2 ± 0.2 h
same,Vd apparent volume of distribution of 14C,[4]; [6],46.1 ± 2.4 mL
same,AUC.infin. of 14C,[4]; [6],345.7 ± 38.3 µg·h/mL
same,AUC4hr of 14C (first 4 hr),[4]; [7],222.2 ± 15.3 µg·h/mL
same,C1T total body clearance of 14C,[4]; [7],7.7 ± 0.8 mL/h
same,Cmax of 14C,[4]; [7],65100 ± 8200 ng/mL
same,T1/2abs absorption half-life of 14C,[4]; [7],8.9 ± 0.9 min
same,Vd apparent volume of distribution of 14C,[4]; [7],85.5 ± 28.1 mL
same,AUC.infin. of 14C,[4]; [7],810.6 ± 81.7 µg·h/mL
